What was measured:
Format in all cases: cell-based, human
HIF-1α [1] = assay: HIF-1α immunoblot of THP-1 cells; conditions: THP-1, normoxia, 24 hours
Experimental: (§1) Leukoreduction filters (Terumo BCT, Lakewood, Colo.), waste products of platelet donation process, were used to isolate PBMCs by an IRB-approved protocol. PBMCs were isolated using Histopaque-1077 (Sigma). Monocyte-enriched PBMCs (MEPs) were prepared using cold-aggregation method with slight modifications (30,60) Monocytes were isolated from MEPs or PBMCs using EasySep Human CD14 Positive Selection Kit (STEMCELL Technologies). Flow cytometric verification of isolated CD14+ cells were performed using RPCI core facility services. The MEPs were cultured at an average density of 25-35×10^6/ml in 1 or 2 ml per well in 6- or 12-well standard tissue culture plates under standard conditions (37° C./5% CO2) in RPMI-1640 medium with 10% FBS, 100 U/ml penicillin and […] streptomycin (Mediatech). Isolated CD14+ and CD14− cells were cultured at approximately 5×10^6 cell/ml and 7×10^6 cells per ml densities, respectively. THP-1 and TLA-HEK293T cell lines were purchased from ATCC, and Open Biosystems®, respectively, and cultured in recommended conditions. THP-1 cells were cultured in 10^6 cells per 100 μl in 96-well culture plates in ATCC-formulated-1640 medium (30-2001), whereas 293T cells were cultured in DMEM medium supplemented with 10% FBS.
Cells were cultured under 1% or 6% O2, 5% CO2 and 94% N2 at 37° C. using Xvivo System (Biospherix). […]

[2] = test system: SDHB c.136C>U RNA editing in CD14+ monocytes; assay: SDHB c.136C>U RNA editing in CD14+ monocytes isolated after culture of MEPs; conditions: CD14+ cells, AtA5/normoxia 2 days, n=3 donors; normoxic controls 5.4%±1.7%
Description: We examined whether MTCII also regulates induction of gene expression in primary monocytes under hypoxia or when inactivated, as observed in SDH-mutated paragangliomas. To test the impact of MTCII inhibition on monocyte gene expression, we cultured MEPs (n=3 donors) in normoxia (1 day), hypoxia (1 day) and AtA5/normoxia (2 days), isolated CD14+ monocytes and performed RNA seq analysis. […] HIF1A but not EPAS1 (HIF2A) or HIF3A is expressed robustly (RPKM averages 21.5, 0.17 and 0.01, respectively) in monocytes. […]
(§2) RNA and plasmid DNA were isolated with commercial kits (TRIzol, Life Technologies and Qiagen, respectively). RNA/DNA was quantified by Nanodrop 2000 (Thermo Fisher). Proteins were quantified using Bio-Rad Dc assay with BSA standards. […] SDHB c.136C>U RNA editing was quantified by allele specific RT-qPCR PCR oligonucleotide primers (FIG. 13) were obtained from Integrated DNA Technologies, Inc. ADM, ELL2, HILPDA, NGLY1, MET, TKTL1, VEGFA and B2M gene expression levels was assessed by qPCR using FastStart Taq DNA polymerase and SYBR Green I dye on a LightCycler 480 System (Roche). Quantification cycle values were calculated by the instrument software using the maximum second derivative method and the mean quantification cycle value of duplicate PCR reactions was used for analysis. […]

HIF-1α [3] = assay: HIF-1α immunoblot of HEK293T cells
Experimental: as §1
(§3) Cells were cultured under 1% or 6% O2, 5% CO2 and 94% N2 at 37° C. using Xvivo System (Biospherix). Human ‘universal’ type I IFN was obtained from PBL Assay Science and used at 600 U/ml. Atpenin A5 (Cayman chemical #11898), myxothiazol (Sigma-Aldrich, #T5580) and 2-Thenoyltrifluoroacetone (TTFA) (Sigma-Aldrich, #T27006) were used at 1-2 μM and 400 μM final concentrations, respectively. DFO (Sigma-Aldrich #D9533) and DMOG (Sigma-Aldrich #D3695) were used in 0.5 mM and 1.0 mM final concentrations, respectively.
2× Laemmeli buffer (BIO-RAD) was used to prepare whole cell lysates. The lysate resuspended in the Laemmeli buffer was heated at 95° C. for 15 minutes, and 40 μl of the sample was used to perform gel electrophoresis on pre-cast, 4%-15% gradient polyacrylamide gels (Mini-PROTEAN TGX, Bio-Rad) in Laemmeli buffer system. Mouse monoclonal anti-HIF1α (product number GTX628480, GT10211; 1:1000 dilution) and mouse monoclonal anti-β-actin (product number AM4302, AC-15; 1:15,000 dilution) was used to detect HIF-1α or actin, respectively followed by incubation with HRP-conjugated goat anti-mouse antibodies (Life Technologies) at 1:2000 dilution.

[4] = test system: A3A-mediated RNA editing (SDHB c.136 C>U) in monocyte-enriched PBMCs (MEPs); assay: SDHB c.136 C>U RNA editing in monocyte-enriched PBMCs (allele specific RT-qPCR)
Experimental: as §1, §3
RNA and plasmid DNA were isolated with commercial kits (TRIzol, Life Technologies and Qiagen, respectively). RNA/DNA was quantified by Nanodrop 2000 (Thermo Fisher). Proteins were quantified using Bio-Rad Dc assay with BSA standards. RNA was reverse transcribed with the Transcriptor First Strand cDNA Synthesis (Roche) kit. SDHB c.136C>U RNA editing was quantified by allele specific RT-qPCR PCR oligonucleotide primers (FIG. 13) were obtained from Integrated DNA Technologies, Inc. ADM, ELL2, HILPDA, NGLY1, MET, TKTL1, VEGFA and B2M gene expression levels was assessed by qPCR using FastStart Taq DNA polymerase and SYBR Green I dye on a LightCycler 480 System (Roche). Quantification cycle values were calculated by the instrument software using the maximum second derivative method and the mean quantification cycle value of duplicate PCR reactions was used for analysis. Delta delta CT method is used to infer gene expression changes.

[5] = test system: hypoxia-regulated genes (ELL2, VEGFA) in 293T cells; assay: RT-qPCR of hypoxia-regulated genes in 293T cells; conditions: normoxia and hypoxia (1% O2), 24 hours
Experimental: Leukoreduction filters (Terumo BCT, Lakewood, Colo.), waste products of platelet donation process, were used to isolate PBMCs by an IRB-approved protocol. PBMCs were isolated using Histopaque-1077 (Sigma). Monocyte-enriched PBMCs (MEPs) were prepared using cold-aggregation method with slight modifications (30,60) Monocytes were isolated from MEPs or PBMCs using EasySep Human CD14 Positive Selection Kit (STEMCELL Technologies). Flow cytometric verification of isolated CD14+ cells were performed using RPCI core facility services. […]
as §2

[6] = test system: monocyte-enriched PBMCs (MEPs); assay: L-Lactate levels in extra-cellular media of MEPs; conditions: supernatants of the oxygen consumption assay
Experimental: (§4) We first measured oxygen consumption and L-lactate levels to confirm the effect of AtA5 and MXT on mitochondrial respiration in MEPs. We used a phosphorescent oxygen probe (MitoXpress-Xtra) which is quenched by oxygen. Cellular respiration in a closed system depletes oxygen and increases the fluorescence. […] Normoxic induction of RNA editing by MXT is also confirmed in a separate experiment from three additional donors (FIG. 11).
(§5) Oxygen consumption was measured using phosphorescent oxygen probe, MitoXpress-Xtra (Cayman Dual Assay Kit, item no. 601060). Monocytes were enriched to >50% purity by short-term cold aggregation and first cultured in standard conditions for 24 hours without treatment to stimulate metabolic activity. Cells were then centrifuged at 200×g for 7 minutes and resuspended in 1 ml RPMI/1% FBS with or without mitochondrial inhibitors. Cells are covered by mineral oil after addition of MitoXpress-Xtra following manufacturer's protocol. The fluorescence was kinetically measured on a plate reader (Synergy H1) at 20 sec intervals for approximately 3 hours (delay 70 μsec, collection time 30 μsec). Supernatants of the oxygen consumption assay were used to measure L-lactate levels following manufacturer's instructions.

[7] = test system: monocyte-enriched PBMCs (MEPs); assay: Oxygen consumption in MEPs (MitoXpress-Xtra phosphorescent oxygen probe); conditions: approximately 3 hours, n=3 donors
Experimental: as §4, §5

In the case of `COc1[nH]c(O)c(C(=O)[C@@H](C)C[C@H](C)[C@@H](Cl)CCl)c(=O)c1OC` [AtA5, 3-((2S,4S,5R)-5,6-dichloro-2,4-dimethylhexanoyl)-2-hydroxy-5,6-dimethoxypyridin-4(1H)-one], the “stabilization of HIF-1α” value (HIF-1α [1]) is reported as “antagonized weak normoxic stabilization of HIF-1α”, the “SDHB c.136C>U RNA editing (mean±SEM)” value [2] is reported as 32.1%±14.9% and the “stabilization of HIF-1α” value (HIF-1α [3]; 293T, 1% O2, 24 hours) is reported as “only at 6% O2”. For the same molecule, the “stabilization of HIF-1α” value (HIF-1α [3]; 293T, 6% O2, 24 hours) was “inhibited stabilization of HIF-1α only at 6% O2”, the “weak HIF-1α expression in normoxia” value (HIF-1α [3]; HEK293T, normoxia, 24 hours, AtA5 1 μM) was “suppressed the weak HIF-1α expression in normoxia” and the “stabilization of HIF-1α” value (HIF-1α [3]; HEK293T, normoxia, 24 hours, DMOG 1 mM, DFO 0.5 mM, AtA5 1 μM) was “not AtA5 stabilized HIF-1α”. The “SDHB c.136 C>U RNA editing, AtA5 together with IFN1” value ([4]; hypoxia with IFN1) was “no additional effect”, the “SDHB c.136 C>U RNA editing” value ([4]; inhibitor jointly with hypoxia (1% O2), compared to hypoxia alone) was “did not further increase RNA editing levels” and the “SDHB c.136 C>U RNA editing” value ([4]; normoxia, 1-3 days) was “induced SDHB c.C136U RNA editing”. The “SDHB c.136 C>U RNA editing, AtA5 together with IFN1” value ([4]; normoxia, IFN1 600 U/ml) was “additive”, the “expression of hypoxia-regulated genes” value [5] was “suppressed” and the L-Lactate levels [6] was “increased relative to the degree of respiratory inhibition”. For the same molecule, the oxygen consumption [7] was “reduced but did not abolish it”.

Source: patent publication US20200375963A1 (priority 2017, published 2020)
